# Results from US10544472B2, “Multiplexing transcription factor reporter protein assay process and system” (Attagene, Inc., priority 2014, dated 2020).
# Assays:
# AhR response element = test: Multiplexed Gluc-tag reporter assay, AhR response element; assay type: cell-based
# Protocol: (§1) Two separate detection assays were conducted to check the profile of FCICC (6-Formylindolo [3, 2-b] carbazole Indolo [3,2-b] carbazole-6-carboxaldehyde-5, 11-dihydro, an AhR response element inducer, commercially available from Biomol, Plymouth Meeting, Pa.) and IL-1β and TNF-α (NF-κB response element inducer).
# (§2) Purified Antibodies were diluted in DPBS with 5% glycerol at 5 μg/ml concentration. […] of diluted antibody solutions were dispensed onto wells of a […] 600 plate (Greiner Bio-One, Monroe, N.C.), and the plate was tapped gently to distribute the antibody solutions evenly on the bottom of the well. The plate was sealed tightly with a PCR sealing film. The antibody plate was stored at 4° C. for one week for antibodies to bind.
# At the end of incubation, 200 μl of Blocking Reagent (Attagene, Research Triangle Park, N.C.) was added to the wells to block the unbounded surface, either for 1 hour at room temperature for quick use, or at 4° C. overnight. The plate was washed 4 times with DPBS (Invitrogen, Carlsbad, Calif.) by flicking the solution out into a waste container and then blotted dry briefly on layers of paper towel. […]
# (§3) After the incubation, samples were removed by gently flicking and the plate was washed 4 times with DPBS as above. […] The reading was normalized against the minimal promoter driven reporter.
# CRE = test: Multiplexed Gluc-tag reporter assay, CRE; assay type: cell-based; settings: twelve response elements/Gluc tags, four assays (FIG. 8)
# Protocol: as §2
# (§4) At the end of incubation, 200 μl of Blocking Reagent (Attagene, Research Triangle Park, N.C.) was added to the wells to block the unbounded surface, either for 1 hour at room temperature for quick use, or at 4° C. overnight. The plate was washed 4 times with DPBS (Invitrogen, Carlsbad, Calif.) by flicking the solution out into a waste container and then blotted dry briefly on layers of paper towel. Target samples were diluted in Binding Reagent (Attagene, Inc., Research Triangle Park, N.C.). After the washing, 100 μl of diluted testing samples were added to the well and incubated at RT for 1 hour with gentle rocking agitation.
# as §3
# [1] = Stability of coelenterazine substrate in assay reagents; assay type: physicochemical; settings: over 70 minutes after dilution from methanol stock into assay reagents
# Protocol: It is well known that coelenterazine is not stable in aqueous solutions. FIGS. 3C and 3D show the stability profiles of coelenterazine substrate in different assay reagents after being diluted from its methanol stock. A solution of Gluc enzyme was injected at different time points into substrates that were prepared at the same time. The overall signal strength decreased about ten times over 70 minutes and there was no significant difference among these buffers in the stability of the substrate. Once again, the Attagene reagent provided better sensitivity and stronger RLU output.
# NF-κB response element = test: Multiplexed Gluc-tag reporter assay, NF-κB response element; assay type: cell-based
# Protocol: as §1, §2, §4, §3
# [2] = seven antibodies on 96-well plate, two separate detection assays (FIGS. 7A, 7B)
# [3] = twelve response elements/Gluc tags, four assays (FIG. 8)
Compound,induction of NF-κB (NF-κB response element; [2]),induction of NF-κB (NF-κB response element; [3]),further results
"O=Cc1c2[nH]c3ccccc3c2cc2c1[nH]c1ccccc12 [FCICC, 6-Formylindolo [3,2-b] carbazole Indolo [3,2-b] carbazole-6-carboxaldehyde-5, 11-dihydro]",–,–,induction of AhR (AhR response element; [2]): specific induction; induction of AhR (AhR response element; [3]): specific induction
C=C[C@@]1(C)CC(=O)[C@]2(O)[C@@]3(C)[C@@H](O)CCC(C)(C)[C@@H]3[C@H](O)[C@H](OC(C)=O)[C@@]2(C)O1 [FSK],–,–,induction of CRE (CRE): specific induction
Oc1ccc(Cc2nc3c(Cc4ccccc4)nc(-c4ccc(O)cc4)cn3c2O)cc1 [coelenterazine],–,–,decrease of overall signal strength [1]: about ten
IL-1β: NF-κB response element inducer,specific induction,specific induction,–
TNF-α,specific induction,specific induction,–
